# Tested on: P. falciparum NF54 strain
# Assay: [3H]-hypoxanthine incorporation assay, asexual blood stage
# Format: cell-based, Plasmodium falciparum
# Conditions: PfNF54 IC50
# Method: P. falciparum asexual blood stage parasites were cultured in human red blood cells (RBC, Blutspende SRK, Zurich) at a hematocrit of 5% in RPMI 1640 medium. The RPMI 1640 medium (ThermoFisher Scientific #51800−043) was supplemented with the following: 24 mM NaHCO3 (pH 7.3, Sigma-Aldrich #31437−500G-R), 25 mM Hepes (Sigma-Aldrich #H4034−500G), 0.36 mM hypoxanthine (Sigma-Aldrich # H9377−25G), 100 µg mL^-1 neomycin (Sigma-Aldrich #N6386−100G) and 0.5% Albumax II (Thermo Fisher #11021−045). Additionally, 2 mM choline chloride (279 mg/L, Sigma-Aldrich #C7527−100G) was added to the culture to block the induction of sexual commitment as described. ^[31^] The RPMI 1640 medium and components were dissolved in water (Milli-Q purified), stirred for at least 3 h, and then sterile filtered (0.22 μm pore size) with a bottle top filter (Corning # 431118). Parasite cultures were maintained in an atmosphere of 3% O2, 4% CO2, and 93% N2 in air-tight chambers at 37 °C. The [^3H]-hypoxanthine incorporation assay was used to test compound activity in the specific parasite lines as described.^[32^] Briefly, compounds were dissolved in DMSO (10 mM) and diluted in a hypoxanthine-free culture medium. A limiting dilution was performed over a 64-fold range (6-step twofold dilution) in a 96-well plate in duplicates. For every starting concentration, a limiting dilution was performed over a 64-fold range (6-step twofold dilution) in a 96-well plate in two biological duplicates. Parasites were added at 100 µL to each well containing the compound to obtain a final parasitemia of 0.3% and haematocrit of 1.25%. The plates were incubated for 48 h before 0.25 µCi of [^3H]-hypoxanthine was added per well for an additional 24 h. Parasites were harvested on a glass-fiber filter with a Microbeta FilterMate cell harvester (Perkin Elmer, Waltham, USA) and radioactivity was counted using a MicroBeta2 liquid scintillation counter (Perkin Elmer, Waltham, US). […] The fifty percent inhibitory concentration (IC50) was calculated by using nonlinear, four parameter (variable slope) curve fitting as described ^[33^] after importing into GraphPad Prism (version 8.3.0).
row,Structure (SMILES),fold increased activity compared to the initial hit molecule 1
1,"O=C(Nc1cc(S(=O)(=O)N2CCCC2)ccc1O)c1cccc(Oc2cc(C(F)(F)F)ccn2)c1 [Compound 23, N-(2-Hydroxy-5-(pyrrolidin-1-ylsulfonyl)phenyl)-3-((4-(trifluoromethyl)pyridin-2-yl)oxy)benzamide]",about 8 fold

# Same assay, conditions: Plasmodium falciparum, NF54, asexual blood stage; mean ± s.d.; read-out: PfNF54 IC50 ± s.d.
row,IC50 [nM],Structure (SMILES)
1,216 ± 32.3,"Cc1cc(C(F)(F)F)cc(Oc2cccc(C(=O)Nc3cc(S(=O)(=O)N4CCCC4)ccc3O)c2)n1 [Compound 22, N-(2-hydroxy-5-(pyrrolidin-1-ylsulfonyl)phenyl)-3-((6-methyl-4-(trifluoromethyl)pyridin-2-yl)oxy)benzamide]"
2,69,"O=C(Nc1cc(S(=O)(=O)N2CCCC2)ccc1O)c1cccc(Oc2cc(C(F)(F)F)ccn2)c1 [Compound 23, N-(2-Hydroxy-5-(pyrrolidin-1-ylsulfonyl)phenyl)-3-((4-(trifluoromethyl)pyridin-2-yl)oxy)benzamide]"
3,361 ± 83,"O=C(Nc1cc(S(=O)(=O)N2CCCC2)ccc1O)c1cccc(Oc2cccc(F)c2)c1 [Compound 16, 3-(3-Fluorophenoxy)-N-(2-hydroxy-5-(pyrrolidin-1-ylsulfonyl)phenyl)benzamide]"
4,1450 ± 80,"O=C(Nc1cc(S(=O)(=O)N2CCCC2)ccc1O)c1cccc(Oc2ccccn2)c1 [Compound 19, N-(2-Hydroxy-5-(pyrrolidin-1-ylsulfonyl)phenyl)-3-(pyridin-2-yloxy)benzamide]"
5,> 10000,"O=C(Nc1cc(S(=O)(=O)N2CCCC2)ccc1O)c1cccc(Oc2cccc(C(F)(F)F)n2)c1 [Compound 21, N-(2-Hydroxy-5-(pyrrolidin-1-ylsulfonyl)phenyl)-3-((6-(trifluoromethyl)pyridin-2-yl)oxy)benzamide]"
6,574 ± 66.5,"O=C(Nc1cc(S(=O)(=O)N2CCCCC2)ccc1O)c1cccc(Oc2ccccc2)c1 [Compound 9, N-(2-Hydroxy-5-(piperidin-1-ylsulfonyl)phenyl)-3-phenoxybenzamide]"
7,34 ± 4,"CC(C)c1ccc(O)c(NC(=O)c2cccc(Oc3cc(C(F)(F)F)ccn3)c2)c1 [Compound 25, N-(2-Hydroxy-5-isopropylphenyl)-3-((4-(trifluoromethyl)pyridin-2-yl)oxy)benzamide]"
8,2315 ± 8.5,"O=C(Nc1cc(S(=O)(=O)N2CCCC2)ccc1O)c1cccc(Oc2ccc(Cl)c(C(F)(F)F)c2)c1 [Compound 17, 3-(4-Chloro-3-(trifluoromethyl)phenoxy)-N-(2-hydroxy-5-(pyrrolidin-1-ylsulfonyl)phenyl)benzamide]"
9,1500 ± 81.2,"Cc1ccc(C(C)C)cc1Oc1cccc(C(=O)Nc2cc(S(=O)(=O)N3CCCC3)ccc2O)c1 [Compound 18, N-(2-hydroxy-5-(pyrrolidin-1-ylsulfonyl)phenyl)-3-(5-isopropyl-2-methylphenoxy)benzamide]"
10,746 ± 21.3,"O=C(Nc1cc(S(=O)(=O)N2CCCC2)ccc1O)c1cccc(Oc2cccc(Cl)n2)c1 [Compound 20, 3-((6-Chloropyridin-2-yl)oxy)-N-(2-hydroxy-5-(pyrrolidin-1-ylsulfonyl)phenyl)benzamide]"

# Further lines, the compound ahead of its results:
row,Structure (SMILES),IC50 [nM]
1,"CN(C(=O)c1cccc(Oc2ccccc2)c1)c1cc(S(=O)(=O)N2CCCC2)ccc1O [Compound 4, N-(2-Hydroxy-5-(pyrrolidin-1-ylsulfonyl)phenyl)-N-methyl-3-phenoxybenzamide]",> 10000
2,"CCCCNS(=O)(=O)c1ccc(O)c(NC(=O)c2cccc(Oc3ccccc3)c2)c1 [Compound 8, N-(5-(N-Butylsulfamoyl)-2-hydroxyphenyl)-3-phenoxybenzamide]",1910 ± 254
3,"CC1CCN(S(=O)(=O)c2ccc(O)c(NC(=O)c3cccc(Oc4ccccc4)c3)c2)CC1 [Compound 11, N-(2-Hydroxy-5-((4-methylpiperidin-1-yl)sulfonyl)phenyl)-3-phenoxybenzamide]",1030 ± 116
4,"CCN(CC)CCCNCc1ccc(O)c(NC(=O)c2cccc(Oc3cc(C(F)(F)F)ccn3)c2)c1 [Compound 28, N-(5-(((3-(diEthylamino)propyl)amino)methyl)-2-hydroxyphenyl)-3-((4-(trifluoromethyl)pyridin-2-yl)oxy)benzamide]",41 ± 17.2
5,"O=C(Nc1cc(-n2cnnc2)ccc1O)c1cccc(Oc2cc(C(F)(F)F)ccn2)c1 [Compound 26, N-(2-Hydroxy-5-(4H-1,2,4-triazol-4-yl)phenyl)-3-((4-(trifluoromethyl)pyridin-2-yl)oxy)benzamide]",158 ± 15.6
6,"O=C(Nc1cc(S(=O)(=O)NCC2CCCCC2)ccc1O)c1cccc(Oc2ccccc2)c1 [Compound 13, N-(5-(N-(Cyclohexylmethyl)sulfamoyl)-2-hydroxyphenyl)-3-phenoxybenzamide]",> 10000
7,"Oc1ccc(CN2CCOCC2)cc1-n1cc(-c2cccc(Oc3cc(C(F)(F)F)ccn3)c2)nn1 [Compound 37, 4-(Morpholinomethyl)-2-(4-(3-((4-(trifluoromethyl)pyridin-2-yl)oxy)phenyl)-1H-1,2,3-triazol-1-yl)phenol]",21 ± 1.13
8,"O=C(Nc1cc(S(=O)(=O)N2CCOCC2)ccc1O)c1cccc(Oc2ccccc2)c1 [Compound 12, N-(2-Hydroxy-5-(morpholinosulfonyl)phenyl)-3-phenoxybenzamide]",197 ± 28
9,"CCS(=O)(=O)c1ccc(O)c(NC(=O)c2cccc(Oc3ccccc3)c2)c1 [Compound 7, N-(5-(Ethylsulfonyl)-2-hydroxyphenyl)-3-phenoxybenzamide]",217 ± 42.4
10,"NS(=O)(=O)c1ccc(O)c(NC(=O)c2cccc(Oc3ccccc3)c2)c1 [Compound 6, N-(2-Hydroxy-5-sulfamoylphenyl)-3-phenoxybenzamide]",777 ± 86
11,"CC1(C)CCN(S(=O)(=O)c2ccc(O)c(NC(=O)c3cccc(Oc4ccccc4)c3)c2)C1 [Compound 10, N-(5-((3,3-diMethylpyrrolidin-1-yl)sulfonyl)-2-hydroxyphenyl)-3-phenoxybenzamide]",1410 ± 147
12,"COc1ccc(S(=O)(=O)N2CCCC2)cc1NC(=O)c1cccc(Oc2ccccc2)c1 [Compound 2, N-(2-Methoxy-5-(pyrrolidin-1-ylsulfonyl)phenyl)-3-phenoxybenzamide]",> 10000
13,"O=C(Nc1cccc(S(=O)(=O)N2CCCC2)c1)c1cccc(Oc2ccccc2)c1 [Compound 5, 3-Phenoxy-N-(3-(pyrrolidin-1-ylsulfonyl)phenyl)benzamide]",4930 ± 97.8
14,"COc1ccc(S(=O)(=O)N2CCCC2)cc1N(C)C(=O)c1cccc(Oc2ccccc2)c1 [Compound 3, N-(2-methoxy-5-(pyrrolidin-1-ylsulfonyl)phenyl)-N-methyl-3-phenoxybenzamide]",> 10000
15,"O=C(Nc1cc(CN2CCOCC2)ccn1)c1cccc(Oc2cc(C(F)(F)F)ccn2)c1 [Compound 35, N-(4-(Morpholinomethyl)pyridin-2-yl)-3-((4-(trifluoromethyl)pyridin-2-yl)oxy)benzamide]",> 10000
16,"CN(Cc1ccc(O)c(NC(=O)c2cccc(Oc3cc(C(F)(F)F)ccn3)c2)c1)C1CCCCC1 [Compound 29, N-(5-((Cyclohexyl(methyl)amino)methyl)-2-hydroxyphenyl)-3-((4-(trifluoromethyl)pyridin-2-yl)oxy)benzamide]",7.6 ± 1.8
17,"Oc1ccc(CN2CCOCC2)cc1NCc1cccc(Oc2cc(C(F)(F)F)ccn2)c1 [Compound 36, 4-(Morpholinomethyl)-2-((3-((4-(trifluoromethyl)pyridin-2-yl)oxy)benzyl)amino)phenol]",808 ± 172
18,"O=C(Nc1cc(S(=O)(=O)N2CCCC2)ccc1O)c1ccc(Oc2ccccc2)cc1 [Compound 15, N-(2-Hydroxy-5-(pyrrolidin-1-ylsulfonyl)phenyl)-4-phenoxybenzamide]",539 ± 92.2
19,"O=C(Nc1cc(S(=O)(=O)NCc2ccccc2)ccc1O)c1cccc(Oc2ccccc2)c1 [Compound 14, N-(5-(N-Benzylsulfamoyl)-2-hydroxyphenyl)-3-phenoxybenzamide]",2780 ± 389
